Usually IC50 stands for the concentration needed to halve the response being measured. High values mean a need for much substance, low ones inhibition by little substance.

The test system of one assay is gastrin. Particulars: background, in vitro; cited from earlier work.
Assay [1] deals with T1, CCK receptor (brain, cerebral cortex) (Cavia porcellus, UniProt H0VZC5).
T1 construct: The cerebral cortex was dissected and used as a receptor source; from tissue; host or cells: cerebral cortex of male Hartley guinea pigs, membrane homogenate
T1 sequence (H0VZC5 1-426): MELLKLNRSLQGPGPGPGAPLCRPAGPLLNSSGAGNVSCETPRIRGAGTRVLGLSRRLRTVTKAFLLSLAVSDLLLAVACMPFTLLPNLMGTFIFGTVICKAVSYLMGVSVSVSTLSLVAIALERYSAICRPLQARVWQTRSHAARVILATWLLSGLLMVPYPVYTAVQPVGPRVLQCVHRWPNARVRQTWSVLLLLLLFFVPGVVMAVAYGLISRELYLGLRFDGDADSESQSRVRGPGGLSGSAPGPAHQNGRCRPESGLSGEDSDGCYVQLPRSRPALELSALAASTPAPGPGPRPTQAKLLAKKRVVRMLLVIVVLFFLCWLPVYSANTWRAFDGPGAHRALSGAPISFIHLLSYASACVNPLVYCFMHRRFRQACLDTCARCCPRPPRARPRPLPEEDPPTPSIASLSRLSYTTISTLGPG
The assay can be described thus: 125I-CCK-33 receptor binding (brain) method. Particulars: 125I-CCK-33, guinea pig cerebral cortex, 25° C., 2 hours. Details: species or system guinea pig (male Hartley). The text has this: (§1) Screening of the novel compounds according to the present invention to determine biological activity and obtain an IC50 value for them, in order to identify significant CCK-antagonism, may be accomplished using an ^125 I-CCK receptor binding assay and in vitro isolated tissue preparations. To identify significant gastrin antagonism, ^125 I-gastrin and ^3 H-pentagastrin binding assays are used. These tests involve the following:
CCK receptor binding (brain) method
CCK-33 was radiolabeled and the binding was performed according to the description for the pancreas method, with modifications according to Saito et al., J. Neurochem., 37, 483-490, 1981.
Male Hartley guinea pigs (300-500 g) were sacrificed by decapitation, and the brains were removed and placed in ice-cold 50 mM Tris HCl plus 7.58 g/l Trizma-7.4 [pH 7.4 at 25° C.]. The cerebral cortex was dissected and used as a receptor source and each gram of fresh guinea pig brain tissue was homogenized in 10 ml of Tris/Trizma buffer with a Brinkmann polytron PT-10. The homogenates were centrifuged at 42,000 g for 15 minutes, then the resulting pellets were resuspended in 200 volumes of binding assay buffer (10 mM N-2-hydroxy-ethyl-piperazine-N'-2-ethane-sulfonic acid (HEPES), pH 7.7 at 25° C., 5 mM MgCl2, 1 mM ethyl glycol-bis-(β-amino-ethyl-ether-N,N'-tetraacetic acid (EGTA), 0.4% BSA (bovine serum albumin) and 0.25 mg/ml bacitracin, pH 6.5).
The remainder of the binding assay method was as described for the pancreas method, except that the reaction mixtures were incubated at 25° C. for 2 hours before centrifugation.

The target in another assay is T2, CCK receptor (pancreas) (Rattus norvegicus, UniProt P30551).
T2 construct: The whole pancreas of a male Sprague-Dawley rat (200-350 g); from tissue; host or cells: whole pancreas of male Sprague-Dawley rat, membrane homogenate
T2 sequence (P30551 1-444): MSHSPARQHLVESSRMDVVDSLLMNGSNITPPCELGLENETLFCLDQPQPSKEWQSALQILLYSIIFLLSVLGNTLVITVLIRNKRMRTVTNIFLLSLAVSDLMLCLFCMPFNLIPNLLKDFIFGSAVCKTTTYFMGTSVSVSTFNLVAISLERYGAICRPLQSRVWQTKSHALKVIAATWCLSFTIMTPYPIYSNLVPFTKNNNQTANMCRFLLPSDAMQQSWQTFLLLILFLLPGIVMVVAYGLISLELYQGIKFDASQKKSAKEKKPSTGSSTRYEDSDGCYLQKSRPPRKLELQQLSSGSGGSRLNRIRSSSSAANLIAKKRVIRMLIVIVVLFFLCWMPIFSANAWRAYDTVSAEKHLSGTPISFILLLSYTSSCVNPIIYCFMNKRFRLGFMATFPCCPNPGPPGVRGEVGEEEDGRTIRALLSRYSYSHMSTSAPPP
The assay can be described thus: 125I-CCK-33 receptor binding (pancreas) method. Set-up: species or system rat (male Sprague-Dawley). To be noted: protease inhibitors added to binding assay buffer. The text has this:
Screening of the novel compounds according to the present invention to determine biological activity and obtain an IC50 value for them, in order to identify significant CCK-antagonism, may be accomplished using an ^125 I-CCK receptor binding assay and in vitro isolated tissue preparations. […] These tests involve the following:
CCK receptor binding (pancreas) method
CCK-33 was radiolabeled with ^125 I-Bolton Hunter reagent (2000 Ci/mmole), as described by Sankara et al. (J. Biol. Chem., 254, 9349-9351, 1979).
The whole pancreas of a male Sprague-Dawley rat (200-350 g), which had been sacrificed by decapitation, was dissected free of fat tissue and homogenized in 20 volumes of ice-cold 50 mM Tris HCl (pH 7.7 at 25° C.) with a Brinkmann Polytron PT-10. The homogenates were centrifuged at 48,000 g for 10 minutes, then the resulting pellets were resuspended in Tris Buffer, centrifuged as above, and resuspended in 200 volumes of binding assay buffer (50 mM Tris HCl, pH 7.7 at 25° C., 5 mM dithiothreitol, 0.1 mM bacitracin, 1.2 mM phenylmethane sulfonyl fluoride and 0.5 mM o-phenanthroline).
The supernatant was aspirated and discarded, and the pellets were counted with a Beckman Gamma 5000.

The next assay has as its system CCK receptor. To be noted: background, structure-function studies; cited from earlier work.
Assay [2] addresses T3, Gastrin receptor (gastric glands) (Cavia porcellus, UniProt H0VZC5).
T3 construct: Gastric mucosa from male Hartley guinea pigs (300-500 g body weight); from tissue; host or cells: isolated gastric mucosal glands of male Hartley guinea pigs
T3 sequence (H0VZC5 1-426): T1 sequence (H0VZC5 1-426)
The assay can be described thus: 125I-gastrin receptor binding in guinea pig gastric glands. Set-up: species or system guinea pig (male Hartley). To be noted: 25° C., 30 minutes.
Description: as §1
Gastrin Receptor Binding in Guinea Pig Gastric Glands
Guinea pig gastric mucosal glands were prepared by the procedure of Berglingh and Obrink, Acta Physiol. Scand. 96: 150 (1976), with a slight modification according to Praissman et al. C. J. Receptor Res. 3: (1983). Gastric mucosa from male Hartley guinea pigs (300-500 g body weight) were washed thoroughly and minced with fine scissors in standard buffer consisting of the following: 130 mM NaCl, 12 mM NaHCO3, 3 mM NaH2 PO4, 3 mM Na2 HPO4, 3 mM K2 HPO4, 2 mM MgSO4, 1 mM CaCl2, 5 mM glucose and 4 mM L-glutamine, 25 mM HEPES at pH 7.4. […]
The washed guinea pig gastric glands were resuspended in 25 ml of standard buffer containing 0.25 mg/ml of bacitracin. […] The radioactivity of the filters was measured using a Beckman gamma 5500 for ^125 I-gastrin or liquid scintillation counting for ^3 H-pentagastrin.

Where a SMILES comes first, the peptide text is derived from it. [ ]: non-standard residue; d: D form. The star is where a group is joined. sY = N[C@@H](Cc1ccc(OS(=O)(=O)O)cc1)C(=O)O; Cbz = O=C(OCc1ccccc1)*; Boc = CC(C)(C)OC(=O)*

Take `CCCN(CCC)C(=O)C(CCC(=O)O)NC(=O)c1ccccc1` (racemic) [Compound 1, reference compound]: the “gastrin antagonism (in words)” value in the assay with gastrin was “very weak in vitro antagonists”. In assay [1], `CCCCCN(CCCCC)C(=O)C(CCC(=O)O)NC(=O)c1ccc(Cl)c(Cl)c1` (racemic) [Compound 2, reference compound] displayed an IC50 of 2.2 µM. Consider `O=S(=O)(F)Cc1ccccc1` [phenylmethane sulfonyl fluoride], for which the “effect on the 125I-CCK receptor binding assay (in words)” value on CCK receptor (pancreas) is listed as “no effect”. As to `CCCC(=O)Nc1nc2c(ncn2[C@@H]2O[C@@H]3COP(=O)(O)O[C@H]3[C@H]2OC(=O)CCC)c(=O)[nH]1` [dibutyryl cyclic GMP], the “CCK antagonism (in words)” value in the assay with CCK receptor is on record as “most potent”. `CCCCCN(CCCCC)C(=O)C(CCC(=O)OCc1ccccc1)NC(=O)Nc1ccc(Cl)cc1` (racemic) [Compound 8, (RS)-4-[(4-chlorophenylaminocarbonyl)amino]-5-(dipentylamino)-5-oxo-1-(phenylmethyloxy)pentanoic acid]: the IC50 in assay [1] came to 5.3 µM; in assay [2], 22 µM.

In the case of `CSCC[C@H](NC(=O)OC(C)(C)C)C(=O)N[C@@H](CC(=O)O)C(=O)N[C@@H](Cc1ccccc1)C(N)=O` [Boc-Met-Asp-Phe-NH2] (Boc-Met-Asp-Phe-NH2), the “CCK antagonism (in words)” value in the assay with CCK receptor is “can function as CCK antagonists”.

On to `c1cnc2c(c1)ccc1cccnc12` [o-phenanthroline], for which the “effect on the 125I-CCK receptor binding assay (in words)” value on CCK receptor (pancreas) is “no effect”.

As to `CSCC[C@H](N)C(=O)N[C@@H](CC(=O)O)C(=O)N[C@@H](Cc1ccccc1)C(N)=O` [Met-Asp-Phe-NH2] (H-Met-Asp-Phe-NH2), the “CCK antagonism (in words)” value with CCK receptor was “can function as CCK antagonists”.

For `CSCC[C@H](NC(=O)[C@H](Cc1ccc(OS(=O)(=O)O)cc1)NC(=O)OCc1ccccc1)C(=O)NCC(=O)N[C@@H](Cc1c[nH]c2ccccc12)C(=O)N[C@@H](CCSC)C(=O)N[C@@H](CC(=O)O)C(N)=O` [Cbz-Tyr(SO3 H)-Met-Gly-Trp-Met-Asp-NH2] (Cbz-[sY]MGWMD-NH2), the “CCK antagonism (in words)” value in the assay with CCK receptor was “partial agonist”.

In the case of `O=C(O)CC[C@@H](NC(=O)c1cc2ccccc2[nH]1)C(=O)N(C1CCCCC1)C1CCCCC1` [Compound 10, (R)-5-(dicyclohexylamino)-4[(1H-indol-2-ylcarbonyl)amino]-5-oxo-pentanoic acid], the IC50 was 3.4 µM in assay [1] and 4.1 µM in assay [2].
